ChEMBL document CHEMBL1240316, “An oxidation-sensing mechanism is used by the global regulator MgrA in Staphylococcus aureus” (2006)
Calls of active or inactive are those of the source. The calls are words filed in the database; no cut-off is given here.

Key:
Format in all cases: functional, organism-based
Staphylococcus aureus [1] = experiment: Antimicrobial activity against Staphylococcus aureus expressing mgrAC12S mutant gene harboring plasmid Pyj335 assessed as visible growth at 1.1 ug/ml after 24 hrs in presence of 100 uM hydrogen peroxide
Staphylococcus aureus [2] = experiment: Antimicrobial activity against Staphylococcus aureus expressing mgrA C12S mutant gene harboring Pyj335-His-mgrA assessed as visible growth at 2.2 ug/ml after 24 hrs in presence of 20 uM paraquat
Staphylococcus aureus [3] = experiment: Antimicrobial activity against Staphylococcus aureus assessed as visible growth at 1.1 ug/ml after 24 hrs in presence of 25 uM paraquat
Staphylococcus aureus [4] = experiment: Antimicrobial activity against Staphylococcus aureus assessed as visible growth at 1 ug/ml after 24 hrs
Staphylococcus aureus [5] = experiment: Antimicrobial activity against Staphylococcus aureus expressing mgrA C12S mutant gene harboring plasmid Pyj335-His-mgrA assessed as visible growth at 1.1 ug/ml after 24 hrs in presence of 100 uM hydrogen peroxide
Staphylococcus aureus [6] = experiment: Antimicrobial activity against Staphylococcus aureus expressing mgrA C12S mutant gene harboring Pyj335-His-mgrA assessed as visible growth at 1 ug/ml after 24 hrs in presence of 20 uM paraquat
Staphylococcus aureus [7] = experiment: Antimicrobial activity against Staphylococcus aureus expressing mgrA C12S mutant gene harboring Pyj335-His-mgrA assessed as visible growth at 2.2 ug/ml after 24 hrs
Staphylococcus aureus [8] = experiment: Antimicrobial activity against Staphylococcus aureus assessed as visible growth at 0.6 ug/ml after 24 hrs in presence of 20 uM paraquat
Staphylococcus aureus [9] = experiment: Antimicrobial activity against Staphylococcus aureus expressing mgrA C12S mutant gene harboring Pyj335-His-mgrA assessed as visible growth at 1.4 ug/ml after 24 hrs
Staphylococcus aureus [10] = experiment: Antimicrobial activity against Staphylococcus aureus expressing mgrA C12S mutant gene harboring Pyj335-His-mgrA assessed as visible growth at 1.8 ug/ml after 24 hrs
Staphylococcus aureus [11] = experiment: Antimicrobial activity against Staphylococcus aureus expressing mgrA C12S mutant gene assessed as visible growth at 2.6 ug/ml after 24 hrs
Staphylococcus aureus [12] = experiment: Antimicrobial activity against Staphylococcus aureus expressing mgrA C12S mutant gene assessed as visible growth at 1.1 ug/ml after 24 hrs
Staphylococcus aureus [13] = experiment: Antimicrobial activity against Staphylococcus aureus expressing mgrA C12S mutant gene harboring Pyj335-His-mgrA assessed as visible growth at 0.6 ug/ml after 24 hrs in presence of 20 uM paraquat
Staphylococcus aureus [14] = experiment: Antimicrobial activity against Staphylococcus aureus expressing mgrA C12S mutant gene assessed as visible growth at 1.8 ug/ml after 24 hrs
Staphylococcus aureus [15] = experiment: Antimicrobial activity against Staphylococcus aureus expressing mgrA C12S mutant gene harboring plasmid Pyj335 assessed as visible growth at 1.8 ug/ml after 24 hrs
Staphylococcus aureus [16] = experiment: Antimicrobial activity against Staphylococcus aureus expressing mgrA C12S mutant gene harboring plasmid Pyj335 assessed as visible growth at 1.4 ug/ml after 24 hrs
Staphylococcus aureus [17] = experiment: Antimicrobial activity against Staphylococcus aureus expressing mgrA C12S mutant gene harboring Pyj335-His-mgrA C12S assessed as visible growth at 1.1 ug/ml after 24 hrs
Staphylococcus aureus [18] = experiment: Antimicrobial activity against Staphylococcus aureus expressing mgrA C12S mutant gene harboring plasmid Pyj335-His-mgrA assessed as visible growth at 1.1 ug/ml after 24 hrs
Staphylococcus aureus [19] = experiment: Antimicrobial activity against Staphylococcus aureus expressing mgrA C12S mutant gene harboring plasmid Pyj335 assessed as visible growth at 1 ug/ml after 24 hrs in presence of 20 uM paraquat
Staphylococcus aureus [20] = experiment: Antimicrobial activity against Staphylococcus aureus expressing mgrA C12S mutant gene harboring Pyj335-His-mgrA assessed as visible growth at 2.6 ug/ml after 24 hrs in presence of 20 uM paraquat
Staphylococcus aureus [21] = experiment: Antimicrobial activity against Staphylococcus aureus assessed as visible growth at 2.2 ug/ml after 24 hrs in presence of 20 uM paraquat
Staphylococcus aureus [22] = experiment: Antimicrobial activity against Staphylococcus aureus expressing mgrA C12S mutant gene assessed as visible growth at 0.6 ug/ml after 24 hrs
Staphylococcus aureus [23] = experiment: Antimicrobial activity against Staphylococcus aureus expressing mgrA C12S mutant gene assessed as visible growth at 0.65 ug/ml after 24 hrs in presence of 20 uM paraquat
Staphylococcus aureus [24] = experiment: Antimicrobial activity against Staphylococcus aureus assessed as visible growth at 0.20 ug/ml after 24 hrs in presence of 100 uM hydrogen peroxide
Staphylococcus aureus [25] = experiment: Antimicrobial activity against Staphylococcus aureus assessed as visible growth at 0.25 ug/ml after 24 hrs in presence of 20 uM paraquat
Staphylococcus aureus [26] = experiment: Antimicrobial activity against Staphylococcus aureus expressing mgrA C12S mutant gene assessed as visible growth at 0.25 ug/ml after 24 hrs
Staphylococcus aureus [27] = experiment: Antimicrobial activity against Staphylococcus aureus expressing mgrA C12S mutant gene harboring plasmid Pyj335 assessed as visible growth at 0.65 ug/ml after 24 hrs
Staphylococcus aureus [28] = experiment: Antimicrobial activity against Staphylococcus aureus expressing mgrA C12S mutant gene harboring Pyj335-His-mgrA assessed as visible growth at 0.75 ug/ml after 24 hrs in presence of 20 uM paraquat
Staphylococcus aureus [29] = experiment: Antimicrobial activity against Staphylococcus aureus expressing mgrA C12S mutant gene harboring Pyj335-His-mgrA assessed as visible growth at 0.35 ug/ml after 24 hrs in presence of 20 uM paraquat
Staphylococcus aureus [30] = experiment: Antimicrobial activity against Staphylococcus aureus assessed as visible growth at 0.20 ug/ml after 24 hrs in presence of 25 uM paraquat
Staphylococcus aureus [31] = experiment: Antimicrobial activity against Staphylococcus aureus expressing mgrA C12S mutant gene assessed as visible growth at 0.75 ug/ml after 24 hrs
Staphylococcus aureus [32] = experiment: Antimicrobial activity against Staphylococcus aureus expressing mgrA C12S mutant gene harboring plasmid Pyj335-His-mgrA assessed as visible growth at 0.45 ug/ml after 24 hrs in presence of 20 uM paraquat
Staphylococcus aureus [33] = experiment: Antimicrobial activity against Staphylococcus aureus assessed as visible growth at 0.55 ug/ml after 24 hrs in presence of 20 uM paraquat
Staphylococcus aureus [34] = experiment: Antimicrobial activity against Staphylococcus aureus expressing mgrA C12S mutant gene harboring Pyj335-His-mgrA assessed as visible growth at 0.45 ug/ml after 24 hrs
Staphylococcus aureus [35] = experiment: Antimicrobial activity against Staphylococcus aureus expressing mgrA C12S mutant gene harboring Pyj335-His-mgrA assessed as visible growth at 0.20 ug/ml after 24 hrs in presence of 25 uM paraquat
Staphylococcus aureus [36] = experiment: Antimicrobial activity against Staphylococcus aureus expressing mgrA C12S mutant gene assessed as visible growth at 0.75 ug/ml after 24 hrs in presence of 20 uM paraquat
Staphylococcus aureus [37] = experiment: Antimicrobial activity against Staphylococcus aureus expressing mgrA C12S mutant gene harboring Pyj335-His-mgrA assessed as visible growth at 0.75 ug/ml after 24 hrs
Staphylococcus aureus [38] = experiment: Antimicrobial activity against Staphylococcus aureus assessed as visible growth at 0.35 ug/ml after 24 hrs

For `CN[C@H](CC(C)C)C(=O)N[C@H]1C(=O)N[C@@H](CC(N)=O)C(=O)N[C@H]2C(=O)N[C@H]3C(=O)N[C@H](C(=O)N[C@H](C(=O)O)c4cc(O)cc(O)c4-c4cc3ccc4O)[C@H](O)c3ccc(c(Cl)c3)Oc3cc2cc(c3O[C@@H]2O[C@H](CO)[C@@H](O)[C@H](O)[C@H]2O[C@H]2C[C@](C)(N)[C@H](O)[C@H](C)O2)Oc2ccc(cc2Cl)[C@H]1O` [VANCOMYCIN], the Activity (Staphylococcus aureus [1]) was “inactive”, the Activity (Staphylococcus aureus [2]) was “Active” and the Activity (Staphylococcus aureus [3]) was “Active”. The Activity (Staphylococcus aureus [4]) was “inactive”, the Activity (Staphylococcus aureus [5]) was “Active” and the Activity (Staphylococcus aureus [6]) was “inactive”. For the same compound, the Activity (Staphylococcus aureus [7]) was “Active”, the Activity (Staphylococcus aureus [8]) was “inactive” and the Activity (Staphylococcus aureus [9]) was “Active”. For the same compound, the Activity (Staphylococcus aureus [10]) was “Active”, the Activity (Staphylococcus aureus [11]) was “Active” and the Activity (Staphylococcus aureus [12]) was “inactive”. The Activity (Staphylococcus aureus [13]) was “inactive”, the Activity (Staphylococcus aureus [14]) was “inactive” and the Activity (Staphylococcus aureus [15]) was “inactive”. The Activity (Staphylococcus aureus [16]) was “inactive”, the Activity (Staphylococcus aureus [17]) was “Active” and the Activity (Staphylococcus aureus [18]) was “Active”. The Activity (Staphylococcus aureus [19]) was “inactive”, the Activity (Staphylococcus aureus [20]) was “Active” and the Activity (Staphylococcus aureus [21]) was “Active”. For the same compound, the Activity (Staphylococcus aureus [22]) was “inactive”.
`O=C(O)c1cn(C2CC2)c2cc(N3CCNCC3)c(F)cc2c1=O` [CIPROFLOXACIN] was tested, and the Activity (Staphylococcus aureus [23]) was “inactive”, the Activity (Staphylococcus aureus [24]) was “Active” and the Activity (Staphylococcus aureus [25]) was “inactive”. For the same compound, the Activity (Staphylococcus aureus [26]) was “inactive”, the Activity (Staphylococcus aureus [27]) was “inactive” and the Activity (Staphylococcus aureus [28]) was “Active”. The Activity (Staphylococcus aureus [29]) was “inactive”, the Activity (Staphylococcus aureus [30]) was “Active” and the Activity (Staphylococcus aureus [31]) was “Active”. The Activity (Staphylococcus aureus [32]) was “inactive”, the Activity (Staphylococcus aureus [33]) was “Active” and the Activity (Staphylococcus aureus [34]) was “Active”. For the same compound, the Activity (Staphylococcus aureus [35]) was “Active”, the Activity (Staphylococcus aureus [36]) was “Active” and the Activity (Staphylococcus aureus [37]) was “Active”. The Activity (Staphylococcus aureus [38]) was “Active”.
